# Laboratory results: patent US11439646B2, “Anti-proliferative agents for treating PAH” (Pfizer Inc., priority 2016, dated 2022)
# Assays:
# Assay type in all cases: cell-based
# rat primary PASMCs = experiment: BrdU cell proliferation assay, rat primary PASMCs; details: PASMC, 24 h, 5% FBS, average of 3, FIG. 1d, read-out: IC50, proliferation of rat primary PASMCs induced by 5% FBS
# Procedure: Cell proliferation assay. Primary PASMCs and PAAFs from normal human subjects (ScienCell Research Laboratories, San Diego, Calif., USA) and rat primary PASMCs (Cell Applications, San Diego, Calif., USA) were plated in CellBIND® 96-well plates in Dulbecco's modification of Eagle's medium (DMEM) containing 5% fetal bovine serum (FBS), and serum-starved for 24 h in DMEM containing 0.1% FBS. Cells were first pre-incubated with different concentrations of palbociclib (in triplicates) for 30 minutes, and then 30 ng/ml PDGF-BB or 5% FBS was added to stimulate cell proliferation. Cells were maintained for 48 h before the proliferation rate was evaluated using the Cell Proliferation ELISA BrdU (bromodeoxyuridine) Luminescence Kit (Roche Diagnostics, Mannheim, Germany). BrdU was added to the medium 16 h before the quantification of BrdU incorporation. This procedure was use to generate data as presented in at least FIGS. 1a, 1b, 1c, and 1d. IC50 values were calculated for any given inhibitor by determining the concentration of compound needed to inhibit 50% of the response applied to the system. IC50 values were derived from the four parameter logistic equation which was fit to the compound concentration response data.
# hPASMC = experiment: EdU cell proliferation assay, hPASMC; details: Homo sapiens, 5% FBS, N = 6, FIG. 1e, read-out: hPASMC IC50 (nM), inhibition of proliferation
# Procedure: (§1) Alternatively, rather than using BrdU, EdU (5-ethynyl-2′-deoxyuridine) can be used. Cells were first pre-incubated with different concentrations of the CDK inhibitor for 30 minutes, and then 5% FBS was added to stimulate cell proliferation. Cells were maintained for 24 h before the proliferation rate was evaluated using EDU Click-iT EdU Alexa Fluor® 647 HCS Assay (Thermofisher Scientific, USA). EdU was added to the medium 16 h before the quantification of EdU incorporation. Proliferation was quantified by scanning the 96-well plates using automated high content imaging platform equipped with appropriate fluorescence microscopic filters for DAPI (4′,6-Diamidino-2-Phenylindole) or Hoechst stain and Cyanine5 dyes as part of the Click-iT assay. Proliferating EdU positive cells detected at Cyanine5 were quantified and normalized to total cell number per well where the total cell number per cell was identified by DAPI or Hoechst signal. The % effect was then calculated:
# (§2) The average (avg) amount (amt) of proliferating cells per concentration of CDK inhibitor with FBS present.
# (§3) The minimum amount of proliferation (min amt of prolif'n) is based on cell numbers in the wells where FBS is not added and no CDK inhibitor is present.
# (§4) The maximum amount of proliferation (max amt of prolif'n) is based on cell numbers in the wells where FBS is added and no CDK inhibitor is present.
# hPAAF = experiment: EdU cell proliferation assay, hPAAF; details: Homo sapiens, 5% FBS, N = 6, FIG. 1f, read-out: hPAAF IC50 (nM), inhibition of proliferation
# Procedure: as §1, §2, §3, §4
smiles,measurement,setting,value
"CC(=O)c1c(C)c2cnc(Nc3ccc(N4CCNCC4)cn3)nc2n(C2CCCC2)c1=O [Palbociclib, 6-acetyl-8-cyclopentyl-5-methyl-2-{[5-(piperazin-1-yl)pyridin-2yl]amino}pyrido[2,3-d]pyrimidin-7(8H)-one]",IC50,rat primary PASMCs,27400 pM
same,IC50,hPASMC,0.3 nM
same,IC50,hPAAF,0.4 nM
